Measured values taken from patent US6362188B1, “Farnesyl protein transferase inhibitors” (Schering Corporation, priority 1998, dated 2002).

Experiments:
[1] = system: Human tumor cells; test: Soft Agar Assay (anchorage-independent growth); format: cell-based; conditions: colony outgrowth in soft agar, stated as a range for the group
Summary of the method: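 Tumor cells suspended in 0.3% agarose over a 0.6% agarose base, both layers containing the same farnesyl transferase inhibitor concentration. Incubated 10-16 days at 37° C, 5% CO2; colonies stained with MTT (1 mg/mL in PBS) and counted, IC50 determined.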

**Q.** Which IC50 [1] does the source give for `Cc1cn(CC2CCCN(C(=O)C3CN(C4c5ccc(Cl)cc5CCc5cc(F)cnc54)CCN3C(=O)OC3CCCCC3)C2)cn1` (centres unmarked) [Example 287] here?
**A.** The IC50 was 0.05 to 30 nM.

**Q.** And the melting point?
**A.** The melting point was 116 to 123 °C.

**Q.** For `Cc1cn(C[C@@H]2CCCN(C(=O)[C@H]3CN([C@@H]4c5ccc(Cl)cc5CCc5cc(F)cnc54)CCN3C(=O)OC3CCCCC3)C2)cn1` [Example 288], which IC50 [1] is on record?
**A.** The IC50 was 0.05 to 30 nM.

**Q.** What about the melting point of the same compound?
**A.** Its melting point is 128 to 134 °C.

**Q.** With `Cc1cn(C[C@H]2CCCN(C(=O)[C@H]3CN([C@H]4c5ccc(Cl)cc5CCc5cc(F)cnc54)CCN3C(=O)OC3CCCCC3)C2)cn1` [Example 289] as the compound, how does the IC50 [1] read?
**A.** Its IC50 is 0.05 to 30 nM.

**Q.** And the melting point?
**A.** The melting point was 120 to 126 °C.

**Q.** Which IC50 [1] does the source give for `Cc1cn(C[C@H]2CCCN(C(=O)[C@H]3CN([C@@H]4c5ccc(Cl)cc5CCc5cc(F)cnc54)CCN3C(=O)OC3CCCCC3)C2)cn1` [Example 290] here?
**A.** Its IC50 is 0.05 to 30 nM.

**Q.** And the melting point?
**A.** Its melting point is 121 to 125 °C.

**Q.** For `Cc1cn(CC2CCCN(C(=O)C3CN(C4c5ccccc5CCc5cc(Cl)cnc54)CCN3C(=O)OC(C)(C)C)C2)cn1` (centres unmarked) [Example 292], which IC50 [1] is on record?
**A.** The IC50 was 0.05 to 30 nM.

**Q.** And the melting point?
**A.** Its melting point is 95 to 105 °C.

**Q.** For `Cc1cn(C[C@H]2CCCN(C(=O)[C@H]3CN([C@@H]4c5ccccc5CCc5cc(Cl)cnc54)CCN3C(=O)OC(C)(C)C)C2)cn1` [Example 294], which IC50 [1] is on record?
**A.** Its IC50 is 0.05 to 30 nM.

**Q.** What about the melting point of the same compound?
**A.** The melting point was 102 to 118 °C.

**Q.** For `Cc1cn(C[C@@H]2CCCN(C(=O)[C@H]3CN([C@H]4c5ccccc5CCc5cc(Cl)cnc54)CCN3C(=O)OC3CCCCC3)C2)cn1` [Example 319], which IC50 [1] is on record?
**A.** Its IC50 is 0.05 to 30 nM.

**Q.** What about the melting point of the same compound?
**A.** Its melting point is 114 to 118 °C.

**Q.** Which results are given for `Cc1cn(C[C@@H]2CCCN(C(=O)[C@H]3CN([C@@H]4c5ccccc5CCc5cc(Cl)cnc54)CCN3C(=O)OC3CCCCC3)C2)cn1` [Example 320]?
**A.** IC50 [1]: 0.05 to 30 nM; melting point: 115 to 120 °C

**Q.** For `Cc1cn(C[C@H]2CCCN(C(=O)[C@H]3CN([C@H]4c5ccccc5CCc5cc(Cl)cnc54)CCN3C(=O)OC3CCCCC3)C2)cn1` [Example 321], which IC50 [1] is on record?
**A.** Its IC50 is 0.05 to 30 nM.

**Q.** What about the melting point of the same compound?
**A.** The melting point was 112 to 121 °C.

**Q.** Which IC50 [1] does the source give for `Cc1cn(C[C@H]2CCCN(C(=O)[C@H]3CN([C@@H]4c5ccccc5CCc5cc(Cl)cnc54)CCN3C(=O)OC3CCCCC3)C2)cn1` [Example 322] here?
**A.** Its IC50 is 0.05 to 30 nM.

**Q.** And the melting point?
**A.** Its melting point is 117 to 125 °C.

**Q.** With `Cc1cn(C[C@@H]2CCCN(C(=O)[C@H]3CN([C@H]4c5ccccc5CCc5cc(Br)cnc54)CCN3C(=O)OC(C)(C)C)C2)cn1` [Example 323] as the compound, how does the IC50 [1] read?
**A.** The IC50 was 0.05 to 30 nM.

**Q.** And the melting point?
**A.** Its melting point is 109 to 124 °C.

**Q.** What does the source list for `Cc1cn(C[C@@H]2CCCN(C(=O)[C@H]3CN([C@@H]4c5ccccc5CCc5cc(Br)cnc54)CCN3C(=O)OC(C)(C)C)C2)cn1` [Example 324]?
**A.** IC50 [1]: 0.05 to 30 nM; melting point: 102 to 119 °C

**Q.** With `Cc1cn(C[C@@H]2CCCN(C(=O)[C@H]3CN([C@H]4c5ccccc5CCc5cc(Br)cnc54)CCN3C(=O)OC3CCCCC3)C2)cn1` [Example 351] as the compound, how does the IC50 [1] read?
**A.** Its IC50 is 0.05 to 30 nM.

**Q.** And the melting point?
**A.** The melting point was 120 to 124 °C.

**Q.** With `Cc1cn(C[C@@H]2CCCN(C(=O)[C@H]3CN([C@@H]4c5ccccc5CCc5cc(Br)cnc54)CCN3C(=O)OC3CCCCC3)C2)cn1` [Example 352] as the compound, how does the IC50 [1] read?
**A.** The IC50 was 0.05 to 30 nM.

**Q.** What about the melting point of the same compound?
**A.** Its melting point is 122 to 125 °C.

**Q.** Which IC50 [1] does the source give for `Cc1cn(C[C@H]2CCCN(C(=O)[C@H]3CN([C@H]4c5ccccc5CCc5cc(Br)cnc54)CCN3C(=O)OC3CCCCC3)C2)cn1` [Example 353] here?
**A.** Its IC50 is 0.05 to 30 nM.

**Q.** And the melting point?
**A.** The melting point was 121 to 127 °C.

**Q.** With `Cc1cn(CC2CCCN(C(=O)C3CN(C4c5ccccc5CCc5cc(Br)cnc54)CCN3C(=O)OC3CCCCC3)C2)cn1` (centres unmarked) [Example 354] as the compound, how does the IC50 [1] read?
**A.** The IC50 was 0.05 to 30 nM.

**Q.** What about the melting point of the same compound?
**A.** Its melting point is 124 to 128 °C.

**Q.** For `Cc1cn(C[C@@H]2CCCN(C(=O)[C@H]3CN([C@H]4c5ccccc5CCc5cc(F)cnc54)CCN3C(=O)OC3CCCCC3)C2)cn1` [Example 383], which IC50 [1] is on record?
**A.** The IC50 was 0.05 to 30 nM.

**Q.** What about the melting point of the same compound?
**A.** The melting point was 121 to 126 °C.

**Q.** With `Cc1cn(C[C@@H]2CCCN(C(=O)[C@H]3CN([C@@H]4c5ccccc5CCc5cc(F)cnc54)CCN3C(=O)OC3CCCCC3)C2)cn1` [Example 384] as the compound, how does the IC50 [1] read?
**A.** The IC50 was 0.05 to 30 nM.

**Q.** And the melting point?
**A.** Its melting point is 104 to 111 °C.

**Q.** Which IC50 [1] does the source give for `Cc1cn(C[C@@H]2CCCN(C(=O)[C@H]3CN([C@H]4c5ccc(Cl)cc5CCc5ccc[n+]([O-])c54)CCN3C(=O)OC3CCCCC3)C2)cn1` [Example 387] here?
**A.** Its IC50 is 0.05 to 30 nM.

**Q.** And the melting point?
**A.** The melting point was 85 to 90 °C.

**Q.** With `Cc1cn(C[C@@H]2CCCN(C(=O)[C@H]3CN([C@@H]4c5ccc(Cl)cc5CCc5ccc[n+]([O-])c54)CCN3C(=O)OC3CCCCC3)C2)cn1` [Example 388] as the compound, how does the IC50 [1] read?
**A.** The IC50 was 0.05 to 30 nM.

**Q.** What about the melting point of the same compound?
**A.** Its melting point is 108 to 113 °C.

**Q.** What does the source list for `Cc1cn(C[C@@H]2CCCN(C(=O)[C@H]3CN([C@H]4c5ccc(Cl)cc5CCc5cccnc54)CCN3C(=O)OCC(C)(C)C)C2)cn1` [Example 411]?
**A.** IC50 [1]: 0.05 to 30 nM; melting point: 103 to 115 °C

**Q.** What does the source list for `Cc1cn(C[C@@H]2CCCN(C(=O)[C@H]3CN([C@H]4c5ccc(Cl)cc5CCc5cccnc54)CCN3C(=O)Cc3cc[n+]([O-])cc3)C2)cn1` [Example 412]?
**A.** IC50 [1]: 0.05 to 30 nM; melting point: 175 °C (dec.)
